Laboratory results from publication PMC8622385, “Metabolites of Prickly Rose: Chemodiversity and Digestive-Enzyme-Inhibiting Potential of Rosa acicularis and the Main Ellagitannin Rugosin D” (Plants, 2021).

Tests used:
[1] = molecular target: T1, α-amylase from the human pancreas (Homo sapiens, UniProt P04746); experiment: HPLC microfractionation with post-column pancreatic α-amylase inhibition (dyed starch); assay type: biochemical; settings: HPLC zone of R. acicularis leaf extract (July sample), 30 s fractions
T1 construct: α-amylase from human pancreas; purchased Lee Biosolutions, Inc. Cat. No. 120-15; host or cells: human pancreas (tissue-derived)
T1 sequence (P04746 16-511): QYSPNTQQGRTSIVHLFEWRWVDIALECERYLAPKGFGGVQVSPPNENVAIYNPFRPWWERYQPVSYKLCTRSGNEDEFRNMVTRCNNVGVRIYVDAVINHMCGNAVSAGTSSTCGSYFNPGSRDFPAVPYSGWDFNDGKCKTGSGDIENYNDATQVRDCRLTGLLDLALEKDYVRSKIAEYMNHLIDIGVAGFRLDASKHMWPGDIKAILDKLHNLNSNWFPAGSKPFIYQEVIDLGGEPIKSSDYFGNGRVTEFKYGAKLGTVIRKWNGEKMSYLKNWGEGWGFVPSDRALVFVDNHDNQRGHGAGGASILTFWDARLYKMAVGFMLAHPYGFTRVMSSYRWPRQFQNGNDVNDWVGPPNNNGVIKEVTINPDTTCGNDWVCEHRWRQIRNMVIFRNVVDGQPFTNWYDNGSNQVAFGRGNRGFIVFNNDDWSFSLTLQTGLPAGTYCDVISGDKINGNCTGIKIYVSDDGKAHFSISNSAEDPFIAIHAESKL
Procedure: The probe of the extract was separated by HPLC, and fractions were eluted every 30 sec, collected, dried and mixed with pancreatic α-amylase. The hydrolytic activity of amylase was studied spectrophotometrically using starch azure as a substrate.
HPLC-PDA-ESI-tQ-MS conditions (Section 3.4) were used to separate the enlarged volume of R. acicularis leaf extract (July sample; 25 μL). The eluates (60 µL) were collected every 30 s by an automated fraction collector, a Shimadzu FRC-10A, and dried under a stream of N2. The eluate residue was dissolved in 50% methanol (50 µL) and added to 50 µL of water, 2.5 mL of Remazol-Brilliant-Blue-R-dyed starch (2% suspension in phosphate buffer, pH of 6.8) and 500 μL α-amylase from the human pancreas (0.4 U/mL), incubated for 50 min (37 °C) and the absorbance was measured at 620 nm. […] The value of 100% destruction of Remazol-Brilliant-Blue-R-dyed starch (or 0% content of intact starch compound) was measured for the eluate with a retention time of 0.5–1.0 min.

[2] = molecular target: T2, porcine pancreatic amylase (Sus scrofa, UniProt P00690); experiment: Simulated gastrointestinal digestion of artificial substrate mixture, amylase activity (p-nitrophenol marker, HPLC-DAD); assay type: biochemical; settings: 1000 μg/mL; control = 100% of enzyme activity
T2 construct: α-amylase from porcine pancreas; purchased Sigma-Aldrich Cat. No. 6255; host or cells: porcine pancreas (tissue-derived)
T2 sequence (P00690 16-511): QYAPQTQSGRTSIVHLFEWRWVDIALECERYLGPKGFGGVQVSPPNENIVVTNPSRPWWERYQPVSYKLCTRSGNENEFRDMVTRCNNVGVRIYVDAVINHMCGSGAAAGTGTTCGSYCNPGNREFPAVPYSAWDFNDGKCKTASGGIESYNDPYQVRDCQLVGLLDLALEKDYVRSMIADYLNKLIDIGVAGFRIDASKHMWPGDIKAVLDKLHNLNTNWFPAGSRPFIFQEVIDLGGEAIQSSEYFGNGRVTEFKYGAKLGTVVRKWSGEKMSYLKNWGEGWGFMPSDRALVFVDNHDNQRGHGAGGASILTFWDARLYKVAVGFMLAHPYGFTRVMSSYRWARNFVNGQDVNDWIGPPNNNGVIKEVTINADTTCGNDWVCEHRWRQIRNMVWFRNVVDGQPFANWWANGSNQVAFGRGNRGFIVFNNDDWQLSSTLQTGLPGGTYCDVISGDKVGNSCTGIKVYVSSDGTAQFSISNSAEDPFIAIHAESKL
From the text: (§1) To study the inhibitory potential of R. acicularis extracts on the digestive enzymes, we used the standardized static, simulated gastrointestinal digestion method of Minekus et al., based on physiologically relevant conditions of digestion. In brief, the artificial substrate mixture, including ethylidene-p-nitrophenyl-α-D-maltoheptaoside (as a carbohydrate model), Nα-benzoyl-L-arginine-7-amino-4-methylcoumarin hydrochloride (as a protein model) and 4-methylumbelliferyl heptanoate (as a lipid model), was digested with extracts of R. acicularis leaves, flowers, roots and fruits (in doses of 100 μg/mL and 1000 μg/mL) by gastric and intestinal enzymatic and electrolyte mixtures (or juices). […] In a final step, concentrations of specific markers, such as p-nitrophenol, 7-amino-4-methylcoumarin and 4-methylumbelliferone, released from an artificial nutrient mixture, were analyzed by an HPLC-DAD assay. […]
(§2) For simulation, the known standardized static gastrointestinal digestion method of Minekus et al. was used with no variation. […] The supernatant was analyzed using an HPLC-DAD assay (Section 3.7) to quantify the level of markers as p-nitrophenol, 7-amino-4-methylcoumarin and 4-methylumbelliferone formed from ethylidene-p-nitrophenyl-α-D-maltoheptaoside, Nα-benzoyl-L-arginine- 7-amino-4-methylcoumarin hydrochloride and 4-methylumbelliferyl heptanoate, respectively. […]

[3] = test system: proteases (pepsin, trypsin, chymotrypsin); experiment: Simulated gastrointestinal digestion of artificial substrate mixture, protease activity (7-amino-4-methylcoumarin marker, HPLC-DAD); assay type: biochemical, porcine, bovine; settings: doses of 1–1000 μg/mL
From the text: as §1, with “([…])” for “(in doses of 100 μg/mL and 1000 μg/mL)”
as §2

[4] = molecular target: T3, porcine pancreatic lipase (Sus scrofa, UniProt P00591); experiment: Simulated gastrointestinal digestion of artificial substrate mixture, lipase activity (4-methylumbelliferone marker, HPLC-DAD); assay type: biochemical
T3 construct: lipase from porcine pancreas; purchased Sigma-Aldrich L3126 (lipase); C3028 (colipase); host or cells: porcine pancreas (tissue-derived)
T3 sequence (P00591 1-450): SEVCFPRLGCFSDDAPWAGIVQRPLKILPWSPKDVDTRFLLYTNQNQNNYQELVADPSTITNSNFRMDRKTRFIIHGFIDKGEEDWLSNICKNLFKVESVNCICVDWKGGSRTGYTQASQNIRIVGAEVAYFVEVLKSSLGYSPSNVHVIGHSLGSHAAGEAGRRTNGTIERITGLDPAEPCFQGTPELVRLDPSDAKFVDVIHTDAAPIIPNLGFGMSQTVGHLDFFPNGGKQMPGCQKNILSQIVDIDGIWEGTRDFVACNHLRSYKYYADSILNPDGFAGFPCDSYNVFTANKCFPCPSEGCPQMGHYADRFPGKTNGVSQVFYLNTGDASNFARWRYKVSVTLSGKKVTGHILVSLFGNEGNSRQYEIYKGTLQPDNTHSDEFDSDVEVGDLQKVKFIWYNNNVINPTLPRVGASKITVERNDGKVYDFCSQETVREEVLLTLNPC
T3 sequence (P02703 23-112 partner): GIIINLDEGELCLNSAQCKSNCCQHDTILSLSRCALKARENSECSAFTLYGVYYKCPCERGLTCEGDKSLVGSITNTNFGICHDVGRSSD
From the text: To study the inhibitory potential of R. acicularis extracts on the digestive enzymes, we used the standardized static, simulated gastrointestinal digestion method of Minekus et al., based on physiologically relevant conditions of digestion [77]. In brief, the artificial substrate mixture, including ethylidene-p-nitrophenyl-α-D-maltoheptaoside (as a carbohydrate model), Nα-benzoyl-L-arginine-7-amino-4-methylcoumarin hydrochloride (as a protein model) and 4-methylumbelliferyl heptanoate (as a lipid model), was digested with extracts of R. acicularis leaves, flowers, roots and fruits (in doses of 100 μg/mL and 1000 μg/mL) by gastric and intestinal enzymatic and electrolyte mixtures (or juices). […] In a final step, concentrations of specific markers, such as p-nitrophenol, 7-amino-4-methylcoumarin and 4-methylumbelliferone, released from an artificial nutrient mixture, were analyzed by an HPLC-DAD assay. […]
For simulation, the known standardized static gastrointestinal digestion method of Minekus et al. [77] was used with no variation. […] The supernatant was analyzed using an HPLC-DAD assay (Section 3.7) to quantify the level of markers as p-nitrophenol, 7-amino-4-methylcoumarin and 4-methylumbelliferone formed from ethylidene-p-nitrophenyl-α-D-maltoheptaoside, Nα-benzoyl-L-arginine- 7-amino-4-methylcoumarin hydrochloride and 4-methylumbelliferyl heptanoate, respectively. […]

human pancreas α-amylase = molecular target: T4, human pancreas α-amylase (Homo sapiens, UniProt P04746); experiment: α-Amylase inhibitory activity, microplate spectrophotometric assay; assay type: biochemical; settings: mean ± S.D.; read-out: IC50 against human pancreas α-amylase (converted)
T4 construct: α-amylase from human pancreas; purchased Lee Biosolutions, Inc. Cat. No. 120-15; host or cells: human pancreas (tissue-derived)
T4 sequence (P04746 16-511): T1 sequence (P04746 16-511)
From the text: (§3) The α-amylase-inhibiting potential of rugosin D was studied using a microplate spectrophotometric assay with three mammalian amylases, including α-amylase from porcine pancreas, α-amylase from human saliva and α-amylase from human pancreas.

human saliva α-amylase = molecular target: T5, human saliva α-amylase (Homo sapiens, UniProt P0DUB6); experiment: as above; assay type: biochemical; settings: mean ± S.D.; read-out: IC50 against human saliva α-amylase (converted)
T5 construct: α-amylase from human saliva; purchased Sigma-Aldrich Cat. No. 0521; host or cells: human saliva
T5 sequence (P0DUB6 16-511): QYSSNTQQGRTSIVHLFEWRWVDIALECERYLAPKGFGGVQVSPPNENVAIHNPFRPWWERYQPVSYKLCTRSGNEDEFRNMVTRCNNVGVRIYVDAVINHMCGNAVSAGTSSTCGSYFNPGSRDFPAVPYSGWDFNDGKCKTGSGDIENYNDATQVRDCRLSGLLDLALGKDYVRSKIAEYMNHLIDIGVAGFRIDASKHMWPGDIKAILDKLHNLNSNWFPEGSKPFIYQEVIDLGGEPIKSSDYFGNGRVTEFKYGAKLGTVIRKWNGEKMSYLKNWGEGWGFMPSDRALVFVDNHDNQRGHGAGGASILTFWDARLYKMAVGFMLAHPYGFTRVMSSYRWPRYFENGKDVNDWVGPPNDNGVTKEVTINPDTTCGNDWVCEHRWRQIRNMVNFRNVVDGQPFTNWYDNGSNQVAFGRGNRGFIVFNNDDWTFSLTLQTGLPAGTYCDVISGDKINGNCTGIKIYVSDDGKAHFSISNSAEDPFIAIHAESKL
From the text: as §3

[5] = molecular target: T6, porcine pancreas α-amylase (Sus scrofa, UniProt P00690); experiment: as above; assay type: biochemical; settings: mean ± S.D.; read-out: IC50 against porcine pancreas α-amylase (converted)
T6 construct: α-amylase from porcine pancreas; purchased Sigma-Aldrich Cat. No. 6255; host or cells: porcine pancreas (tissue-derived)
T6 sequence (P00690 16-511): T2 sequence (P00690 16-511)
From the text: as §3

O=C(OC[C@H]1O[C@@H](OC(=O)c2cc(O)c(O)c(O)c2)[C@H](OC(=O)c2cc(O)c(O)c(O)c2)[C@@H](OC(=O)c2cc(O)c(O)c(O)c2)[C@@H]1O)c1cc(O)c(O)c(O)c1 [1,2,3,6-tetra-O-galloyl glucose, 1,2,3,6-Tetra-O-galloyl glucose]
Pancreatic-α-amylase-inhibiting activity of HPLC zone (in words) [1]: medium activity

C[C@H]1O[C@H](O[C@H]2[C@H](O)[C@@H](O)[C@@H](O[C@H]3[C@H](O)[C@@H](O)C(O)O[C@@H]3CO)O[C@@H]2CO)[C@H](O)[C@@H](O)[C@@H]1N[C@H]1C=C(CO)[C@@H](O)[C@H](O)[C@H]1O (some centres unmarked) [Acarbose]
Amylase activity (percentage of initial) after simulated gastrointestinal digestion [2]: 55%

O=C(OC1O[C@@H]2COC(=O)c3cc(O)c(O)c(O)c3-c3c(cc(O)c(O)c3O)C(=O)O[C@H]2[C@H](OC(=O)c2cc(O)c(O)c(O)c2)[C@H]1OC(=O)c1cc(O)c(O)c(O)c1)c1cc(O)c(O)c(O)c1 (some centres unmarked) [tellimagrandin II, Tellimagrandin II1]
Pancreatic-α-amylase-inhibiting activity of HPLC zone (in words) [1]: medium activity

O=C(O[C@@H]1O[C@@H]2COC(=O)c3cc(Oc4c(C(=O)O[C@@H]5O[C@@H]6COC(=O)c7cc(O)c(O)c(O)c7-c7c(cc(O)c(O)c7O)C(=O)O[C@H]6[C@H](OC(=O)c6cc(O)c(O)c(O)c6)[C@H]5OC(=O)c5cc(O)c(O)c(O)c5)cc(O)c(O)c4O)c(O)c(O)c3-c3c(cc(O)c(O)c3O)C(=O)O[C@H]2[C@H](OC(=O)c2cc(O)c(O)c(O)c2)[C@H]1OC(=O)c1cc(O)c(O)c(O)c1)c1cc(O)c(O)c(O)c1 [Rugosin D]
Inhibition of protease activity in simulated digestion (in words) [3]: not substantially inhibited
Inhibition of lipase activity in simulated digestion (in words) ([4]; doses of 1–1000 μg/mL): not substantially inhibited
Starch protected (starch content as percentage of initial) after reaction with pancreatic amylase [1]: 82–95%
IC50 (human pancreas α-amylase): 16.4 µM
IC50 (human saliva α-amylase): 36 µM
IC50 [5]: 17.1 µM

CCCCCCCCCCC[C@@H](C[C@@H]1OC(=O)[C@H]1CCCCCC)OC(=O)[C@H](CC(C)C)NC=O [orlistat, reference compound]
Lipase activity (percentage of initial) after simulated gastrointestinal digestion ([4]; 1000 μg/mL, control = 100% of enzyme activity): 38%

O=C(O)[C@H]1O[C@@H](Oc2c(-c3ccc(O)c(O)c3)oc3cc(O)cc(O)c3c2=O)[C@H](O)[C@@H](O)[C@@H]1O [miquelianin, Quercetin-3-O-glucuronide]
Pancreatic-α-amylase-inhibiting activity of HPLC zone (in words) [1]: medium activity
